We go through three compounds from patent US20110071173A1, “IMIDAZOQUINAZOLINE DERIVATIVES AS ANAGRELIDE ANALOGUES FOR THE TREATMENT OF MYELOPROLIFIC DISEASES AND THROMBOTIC DISEASES” (Shire LLC, priority 2008, published 2011).

Where only a bound is given, the exact number is not on record here.

Series [1] concerns the target human phosphodiesterase III (PDE III). The note with it: cited from earlier work.
For series [2], the system named is TPO-induced megakaryocytopoiesis. The note with it: cited from earlier work.
The subject of series [3] is erythroid or myelomonocytic differentiation. To be noted: stimulated by erythropoietin or granulocyte-macrophage colony-stimulating factor; cited from earlier work.
For series [4] the following is noted: cited from earlier work.
In series [5] the test system is human phosphodiesterase III (PDE III). In words: PDE III inhibition. It is filed as biochemical. The note with it: versus anagrelide.
Series [6] can be described thus: pharmacokinetics in vivo (half-life, exposure, first pass). The note with it: after anagrelide treatment. Further details: species or system human.

In the case of `Cc1[nH]c(=O)c(C#N)cc1-c1ccncc1` [milrinone], the IC50 in series [1] is 170 to 350 nM.

In the case of `O=C1CN2Cc3c(ccc(Cl)c3Cl)N=C2N1` [Anagrelide, 6,7-dichloro-1,5-dihydroimidazo[2,1-b]-quinazolin-2(3H)-one], the IC50 in series [2] (in vitro, human megakaryocytopoiesis, read-out: estimated IC50, inhibition of TPO-induced megakaryocytopoiesis) is approximately 26 nM; in series [1], approximately 29 nM. Moreover, the “effect on erythroid or myelomonocytic differentiation” value in series [3] is recorded as “does not affect”. In addition, the first pass effect in series [4] (in vivo) is more than 50%.

Regarding `O=C1NC2=Nc3ccc(Cl)c(Cl)c3CN2C1O` (stereo not drawn) [3-hydroxyanagrelide], the “potency as PDE III inhibitor relative to anagrelide” value in series [5] was “over 40 fold”. Further, in series [2] (versus anagrelide), the “potency in inhibition of megakaryocytopoiesis relative to parent drug” value was “no more potent than the parent drug”. Further, in series [4] (typical), the half-life is 2.5 h. The “exposure in vivo relative to parent drug” value in series [6] is 2-3 fold.
